Reference: patent US5597806A, “Antifungal agents” (Merck & Co., Inc., priority 1995, dated 1997)
In brackets after ≈: the same amount, converted by molar mass. Read-outs that look alike come from different tables or passages of the source.

Legend:
Experiment in all cases: broth microdilution assay
[1] = tested on: Aspergillus fumigatus (MF4839); type: cell-based; details: for MIC: complete clearing
Description: (§1) In the microbroth dilution assay, the selected microorganisms were grown by streaking a yeast culture on Sabouraud Dextrose agar (SDA) and incubating for 24-48 hr at 35°-37° C. Thereafter, 3-5 characteristic colonies were selected and transferred to CM-YNB+0.1% Dextrose Agar plates (1% Bactopeptone, 0.5% yeast extract, 6.7 g/L yeast nitrogen base with amino acids, 1 μM adenine, 0.1% dextrose, and 1.5% Bacto agar) and incubated overnight at 35°-37° C. From the regrowth, 3 to 5 colonies were selected and suspended in 5 ml of CM-YNBD media (same as above, only without agar) and incubated for 4-6 hr at 35°-37° C. shaking at 225 rpm. The broth cultures were adjusted spectrophotometrically to 86% transmission resulting in a concentration of 1-5×10^6 cfu/ml which was further diluted 1:100 (1:50 for Aspergillus) in CM-YNBD to obtain a concentration of 1-5 ×10^4 cfu/ml to use as inocula.
(§2) The test compounds were prepared as a stock solution of 512 μg/ml in 10% DMSO and 75 μl of said solution delivered to a well in column one of each 96 well, U-bottomed microtiter plate that already contained 75 μl of CM-YNBD media per well. In the first run of the assay, Compound I was then serially diluted two fold from column 1 to column 12 to yield concentrations from 256 μg/ml to 0,125 μg/ml.
as §2, with “Amphotericin B, the control compound, was” for “The test compounds were”, “The compound” for “In the first run of the assay, Compound I”
(§3) The plates containing the diluted compounds were then inoculated with 75 μl/well of the appropriate microorganism resulting in a further 2-fold dilution such that the final concentration of test compounds ranged between 128 and 0.06 μg/ml. The plates were incubated for 48 hours at 35°-37° C. with MIC (minimum inhibitory concentration) determinations carried out after 24 hours of incubation. Growth and sterility controls for each organism and sterility checks for the compounds also were carried out. In three cases, a modified MIC endpoint (MIC2) was used.
(§4) No MFC values are indicated for Aspergillus fumigatus since colony counts are unreliable with filamentous species. Instead, a Minimum Effective Concentration (MEC) is reported for A. fumigatus. The MEC is defined as the lowest concentration of drug which effects a severe morphological change in the cells. The MEC is scored […] by direct observation of the microtiter plate wells after 24 hours and reflects microscopic alterations in cell morphology (Kurtz et al. AAC:38:1480-1489[94]).
(§5) In this run, Compound I was titrated from 64-0.03 μg/ml and Compound II was titrated from 128-0.06 μg/ml.

[2] = tested on: Aspergillus fumigatus (MF5668); type: cell-based; details: for MIC: complete clearing
Description: as §1, §2
as §2, with “Amphotericin B, the control compound, was” for “The test compounds were”, “The compound” for “In the first run of the assay, Compound I”
as §3, §4, §5

[3] = tested on: Candida pseudotroplicalis (MY2099); type: cell-based, Candida pseudotropicalis; details: for MIC: complete clearing
Description: as §1, §2
as §2, with “Amphotericin B, the control compound, was” for “The test compounds were”, “The compound” for “In the first run of the assay, Compound I”
as §3
After recording MICs at 24 hours, samples are withdrawn to determine the MFC. The microtiter plates were shaken gently to resuspend the cells and […] sample was transferred from each well of the 96 well plate to the surface of a single reservoir inoculum plate containing 15 ml of SDA. The inoculated SDA and corresponding microtiter plates were incubated for 24 hours at 35°-37° C. For Cryptococcus neoformans, the MFC plates were inoculated after reading the 48 hour MICs and incubated for 48 hours before reading the MFC. […]

[4] = tested on: Saccharomyces cerevisiae (MY2140); type: cell-based; details: for MIC: complete clearing
Description: as §1, §2
as §2, with “Amphotericin B, the control compound, was” for “The test compounds were”, “The compound” for “In the first run of the assay, Compound I”
as §3
(§6) After recording MICs at 24 hours, samples are withdrawn to determine the MFC. The microtiter plates were shaken gently to resuspend the cells and […] sample was transferred from each well of the 96 well plate to the surface of a single reservoir inoculum plate containing 15 ml of SDA. The inoculated SDA and corresponding microtiter plates were incubated for 24 hours at 35°-37° C. For Cryptococcus neoformans, the MFC plates were inoculated after reading the 48 hour MICs and incubated for 48 hours before reading the MFC. The MFC is the lowest concentration of compound at which either no growth or growth of ≤3 colonies occurs.
as §5

[5] = tested on: Candida tropicalis (MY1124); type: cell-based
Description: as §1, §2
as §2, with “Amphotericin B, the control compound, was” for “The test compounds were”, “The compound” for “In the first run of the assay, Compound I”
as §3, §6, §5

[6] = tested on: Saccharomyces cerevisiae (MY2141); type: cell-based; details: for MIC: complete clearing
Description: as §1, §2
as §2, with “Amphotericin B, the control compound, was” for “The test compounds were”, “The compound” for “In the first run of the assay, Compound I”
as §3, §6, §5

[7] = tested on: Candida albicans (CLY539); type: cell-based; details: for MIC: * = MIC2, prominent decrease in turbidity
Description: as §1, §2
as §2, with “Amphotericin B, the control compound, was” for “The test compounds were”, “The compound” for “In the first run of the assay, Compound I”
as §3, §6, §5

[8] = tested on: Candida glabrata (MY1381); type: cell-based; details: Nakaseomyces glabratus; for MIC: complete clearing
Description: as §1, §2
as §2, with “Amphotericin B, the control compound, was” for “The test compounds were”, “The compound” for “In the first run of the assay, Compound I”
as §3, §6, §5

[9] = tested on: Candida guillermondii (MY1019); type: cell-based; details: for MIC: complete clearing
Description: as §1, §2
as §2, with “Amphotericin B, the control compound, was” for “The test compounds were”, “The compound” for “In the first run of the assay, Compound I”
as §3, §6, §5

[10] = tested on: Candida albicans (MY1055); type: cell-based
Description: as §1, §2
as §2, with “Amphotericin B, the control compound, was” for “The test compounds were”, “The compound” for “In the first run of the assay, Compound I”
as §3, §6, §5

[11] = tested on: Candida tropicalis (MY1012); type: cell-based; details: for MIC: complete clearing
Description: as §1, §2
as §2, with “Amphotericin B, the control compound, was” for “The test compounds were”, “The compound” for “In the first run of the assay, Compound I”
as §3, §6, §5

[12] = tested on: Candida parapsilosis (MY1010); type: cell-based; details: Lodderomyces parapsilosis
Description: as §1, §2
as §2, with “Amphotericin B, the control compound, was” for “The test compounds were”, “The compound” for “In the first run of the assay, Compound I”
as §3, §6, §5

Candida albicans (CA2) = type: cell-based; details: comparative run, I 64-0.03, II 128-0.06 μg/ml, complete clearing
Description: as §1, §2
as §2, with “Amphotericin B, the control compound, was” for “The test compounds were”, “The compound” for “In the first run of the assay, Compound I”
as §3, §6, §5

[13] = tested on: Cryptococcus neoformans (MY2062); type: cell-based; details: complete clearing
Description: as §1, §2
as §2, with “Amphotericin B, the control compound, was” for “The test compounds were”, “The compound” for “In the first run of the assay, Compound I”
as §3, §6, §5

[14] = comparative run, I 64-0.03, II 128-0.06 μg/ml
[15] = comparative run, II 128-0.06 μg/ml, * = MIC2, prominent decrease in turbidity, read-out: MIC2
[16] = first run, 128-0.06 μg/ml, 24 h
[17] = first run, lowest concentration effecting severe morphological change, 24 h, read-out: MEC
[18] = first run, 128-0.06 μg/ml, no growth or ≤3 colonies
[19] = first run, 128-0.06 μg/ml, 24 h, * = MIC2, prominent decrease in turbidity, read-out: MIC2
[20] = comparative run, I 64-0.03 μg/ml, complete clearing, read-out: MIC

## C=C(CCC(C)C1CCC2(C(=O)O)C3=C(CCC12C)C1(C)CCC(OC2OC(CO)C(O)C(O)C2O)C(=C)C1CC3)C(C)C (stereo not shown) [Compound II]
[1]; [14]
  MIC: > 128 µg/mL
[2]; [14]
  MIC: > 128 µg/mL
[3]; [14]
  MIC: < 0.06 µg/mL
[4]; [14]
  MIC: 1 µg/mL (≈ 1.62 µM)
[5]; comparative run, II 128-0.06 μg/ml, complete clearing, read-out: MIC
  MIC: 0.5 µg/mL (≈ 0.811 µM)
[6]; [14]
  MIC: < 0.06 µg/mL
[7]; [14]
  MIC: > 128 µg/mL
[8]; [14]
  MIC: 0.5 µg/mL (≈ 0.811 µM)
[9]; [14]
  MIC: > 128 µg/mL
[10]; [15]
  MIC: 1 µg/mL (≈ 1.62 µM)
[11]; [14]
  MIC: 8 µg/mL (≈ 13 µM)
[12]; [15]
  MIC: 2 µg/mL (≈ 3.24 µM)
Candida albicans (CA2)
  MIC: > 128 µg/mL
[13]; [14]
  MIC: > 128 µg/mL

## C=C(CCC(C)C1CC(O)C2(C(=O)O)C3=C(CCC12C)C1(C)CCC(OC2OC(CO)C(OC)C(O)C2O)C(=C)C1CC3)C(C)C (stereo not shown) [Compound I]
[1]; [14]
  MIC: > 64 µg/mL
[1]; [16]
  MIC: > 128 µg/mL
[1]; [17]
  minimal effective concentration: 0.25 µg/mL
[2]; [14]
  MIC: > 64 µg/mL
[2]; [16]
  MIC: > 128 µg/mL
[2]; [17]
  minimal effective concentration: < 0.06 µg/mL
[3]; [14]
  MIC: < 0.03 µg/mL
[3]; [16]
  MIC: < 0.06 µg/mL
[3]; [18]
  MFC: < 0.06 µg/mL
[4]; [14]
  MIC: 4 µg/mL (≈ 6.18 µM)
[4]; [16]
  MIC: 8 µg/mL (≈ 12.4 µM)
[4]; [18]
  MFC: 4 µg/mL (≈ 6.18 µM)
[5]; comparative run, I 64-0.03 μg/ml, * = MIC2, prominent decrease in turbidity, read-out: MIC2
  MIC: < 0.03 µg/mL
[5]; [19]
  MIC: 0.25 µg/mL (≈ 0.386 µM)
[5]; [18]
  MFC: 0.125 µg/mL (≈ 0.193 µM)
[6]; [14]
  MIC: < 0.03 µg/mL
[6]; [16]
  MIC: < 0.06 µg/mL
[6]; [18]
  MFC: < 0.06 µg/mL
[7]; [14]
  MIC: < 0.03 µg/mL
[7]; [16]
  MIC: 0.5 µg/mL (≈ 0.773 µM)
[7]; [18]
  MFC: > 128 µg/mL
[8]; [16]
  MIC: < 0.06 µg/mL
[8]; [18]
  MFC: < 0.06 µg/mL
[9]; [14]
  MIC: > 64 µg/mL
[9]; [16]
  MIC: > 128 µg/mL
[9]; [18]
  MFC: > 128 µg/mL
[10]; [20]
  MIC: < 0.03 µg/mL
[10]; [19]
  MIC: 2 µg/mL (≈ 3.09 µM)
[10]; [18]
  MFC: < 0.06 µg/mL
[11]; [14]
  MIC: 8 µg/mL (≈ 12.4 µM)
[11]; [16]
  MIC: 8 µg/mL (≈ 12.4 µM)
[11]; [18]
  MFC: 8 µg/mL (≈ 12.4 µM)
[12]; [20]
  MIC: < 0.03 µg/mL
[12]; first run, 128-0.06 μg/ml, 24 h, complete clearing, read-out: MIC
  MIC: < 0.06 µg/mL
[12]; [18]
  MFC: < 0.06 µg/mL
Candida albicans (CA2)
  MIC: > 64 µg/mL
[13]; [14]
  MIC: > 64 µg/mL
[13]; first run, 128-0.06 μg/ml
  MIC: 32 µg/mL (≈ 49.5 µM)
